pEC50: −log10 of the molar value. Read-outs that look alike come from different tables or passages of the source.
Molecular target: human α7 nAChR (Homo sapiens (Human), UniProt P36544)
Test: Automated patch-clamp electrophysiology functional assay (Assay A), IonFlux HT
Type: cell-based
Details: HEK cell line stably expressing human RIC-3 and human α7, whole-cell population patch, 40 μM acetylcholine
Experimental: The α7 nAChR positive allosteric modulator (PAM) activity of the present compounds may be tested using assays known in the art. The α7 nAChR PAMs described herein have activities in an automated patch-clamp electrophysiology functional assay as described in the examples. The assay was performed using the IonFlux HT in a whole-cell, population patch configuration. See Golden et al. Assay Drug Dev. Technol. (2011) 9:608-619. The compounds were assessed for their ability to modulate the function of the human α7 nAChR stably expressed in a HEK cell line both in the presence, and in the absence of the natural α7 agonist acetylcholine. By performing a series of such measurements at different concentrations, the effective concentration of the α7 nAChR PAMs (EC50) was determined. See Spencer et al. Assay Drug Dev. Technol. (2012) 10:313-324.
Automated patch-clamp electrophysiology was performed using the IonFlux HT (Fluxion Biosciences Inc., San Francisco, Calif.) in the whole-cell, population patch configuration. Test compounds were assessed for their ability to modulate the function of the α7 nicotinic acetylcholine receptor both in the presence, and in the absence of the natural α7 agonist acetylcholine. A HEK cell line stably expressing both human RIC-3 and human α7 (PrecisION hnAChR α7/RIC-3, Eurofins Pharma, St. Charles, Mo.) was cultured in 175 cm^2 triple-layer tissue culture flasks to no more than 90% confluency in DMEM/F-12 growth media supplemented with 10% heat-inactivated fetal bovine serum, 1% non-essential amino acids, 0.625 μg/mL Puromycin, and 400 μg/mL Geneticin. Immediately prior to assay, cells were detached by first aspirating growth media, rinsing with Dulbecco's phosphate buffered saline, and then adding 10 mL of Accutase (Innovative Cell Technologies, San Diego, Calif.) to the flask and then incubating at 37° C. for 5 minutes. Detached cells were then recovered by the addition of 40 mL of CHO-serum-free media supplemented with 25 mM HEPES, and rocked gently in a 50 mL conical tube for 20 minutes prior to patch-clamp assay. After recovery, cells were pelleted by centrifugation at 1,000 RPM for 1 minute in a compact bench top centrifuge; recovery media was aspirated and cells were resuspended in external recording solution (150 mM NaCl, 5 mM KCl, 2 mM CaCl2, 1 mM MgCl2, 10 mM HEPES, 12 mM dextrose) to a density of 5.0×10^6 cells/mL. The cell suspension was added to the cell inlet wells on an IonFlux HT population patch plate which had previously been rinsed and primed with deionized H2O. Test compounds were serially diluted in DMSO and then resuspended to the final test concentration in external recording solution, with, or without 40 μM acetylcholine added to the external recording solution; test compounds were then transferred to the IonFlux HT population patch plate. Internal recording solution (110 mM TrisPO4, 28 mM TrisBase, 0.1 mM CaCl2, 2 mM MgCl2, 11 mM EGTA, 4 mM MgATP) was added to the internal recording solution inlet wells on the IonFlux HT patch plate previously loaded with cells and test compounds, and the plate loaded into the IonFlux HT instrument. A protocol was executed on the IonFlux HT to trap the cells, break into the cells, and establish the whole-cell recording configuration; cells were voltage-clamped at a holding potential of −60 mV for the duration of the experiment, all experiments were conducted at room temperature, and the IonFlux HT injection pressure was 8 psi for solution applications. Upon establishing the whole-cell configuration, external recording solution was perfused into the recording chambers for 120 seconds and then 40 μM acetylcholine was applied for 1 second and immediately washed off with external recording solution for 60 seconds. The 40 μM acetylcholine-evoked α7 current served as the current response to which subsequent test compound effects, in the presence, or in the absence of 40 μM acetylcholine would be quantified relative to. […]

Sequence of human α7 nAChR (P36544 23-502): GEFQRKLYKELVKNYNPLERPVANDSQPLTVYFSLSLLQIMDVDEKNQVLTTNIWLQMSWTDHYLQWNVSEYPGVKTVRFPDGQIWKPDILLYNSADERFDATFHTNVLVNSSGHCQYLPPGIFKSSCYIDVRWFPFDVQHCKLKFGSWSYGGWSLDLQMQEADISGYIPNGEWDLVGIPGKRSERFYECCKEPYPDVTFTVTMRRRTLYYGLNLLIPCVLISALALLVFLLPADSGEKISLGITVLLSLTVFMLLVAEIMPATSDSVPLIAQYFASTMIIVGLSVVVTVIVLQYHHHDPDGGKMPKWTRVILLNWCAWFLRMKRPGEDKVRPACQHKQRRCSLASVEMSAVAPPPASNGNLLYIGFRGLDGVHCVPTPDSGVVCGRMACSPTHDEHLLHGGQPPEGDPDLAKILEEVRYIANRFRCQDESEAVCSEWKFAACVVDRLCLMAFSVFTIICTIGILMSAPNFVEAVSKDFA

Row | pEC50 (read-out: α7 nAChR EC50) | pEC50 (read-out: α7 nAChR Potency) | Molecule
1 | 5.54 | 5.30 to 6.30 | CN(C)c1nccc(C2CC2c2ccc(S(N)(=O)=O)cc2)n1 (racemic) [Example D1, 4-{trans-2-[2-(Dimethylamino)pyrimidin-4-yl]cyclopropyl}benzenesulfonamide]
2 | – | 5.30 to 6.30 | NS(=O)(=O)c1ccc(C2CC2c2ccnc(-c3ccccc3)n2)cc1 (racemic) [Example D9, 4-[trans-2-(2-Phenylpyrimidin-4-yl)cyclopropyl]benzenesulfonamide]
3 | 5.96 | 5.30 to 6.30 | NS(=O)(=O)c1ccc(C2CC2c2ccnc(NCCc3ccccc3)n2)cc1 (racemic) [Example D10, 4-(trans-2-{2-[(2-Phenylethyl)amino]pyrimidin-4-yl}cyclopropyl)benzenesulfonamide]
4 | 5.48 | 5.30 to 6.30 | NS(=O)(=O)c1ccc(C2CC2c2ccnc(Nc3ccccc3)n2)cc1 (racemic) [Example D11, 4-{trans-2-[2-(Phenylamino)pyrimidin-4-yl]cyclopropyl}benzenesulfonamide]
5 | – | 5.30 to 6.30 | CC(C)c1cc(C2CC2c2ccc(S(N)(=O)=O)cc2)ccn1 (racemic) [Example E1, 4-{trans-2-[2-(Propan-2-yl)pyridin-4-yl]cyclopropyl}benzenesulfonamide]
6 | 6.30 | 6.30 to 7.00 | NS(=O)(=O)c1ccc([C@@H]2C[C@H]2c2ccnc(C3CCC3)c2)cc1 (racemic) [Example E3, 4-[trans-2-(2-Cyclobutylpyridin-4-yl)cyclopropyl]benzenesulfonamide]
7 | 5.43 | 5.30 to 6.30 | NS(=O)(=O)c1ccc([C@@H]2C[C@H]2c2ccc(-n3ccnc3)cc2)cc1 (racemic) [Example F1, 4-{trans-2-[4-(1H-Imidazol-1-yl)phenyl]cyclopropyl}benzenesulfonamide]
8 | 5.28 | 4.30 to 5.30 | NS(=O)(=O)c1ccc(C2CC2c2cccc(-n3cncn3)c2)cc1 (racemic) [Example F2, 4-{trans-2-[3-(1H-1,2,4-Triazol-1-yl)phenyl]cyclopropyl}benzenesulfonamide]
9 | – | 5.30 to 6.30 | CC(C)c1ccc(C2CC2c2ccc(S(N)(=O)=O)cc2)cn1 (racemic) [Example G1, 4{-trans-2-[6-(Propan-2-yl)pyridin-3-yl]cyclopropyl}benzenesulfonamide]
10 | 6.06 | 5.30 to 6.30 | NS(=O)(=O)c1ccc([C@@H]2C[C@H]2c2ccc(-n3cccn3)nc2)cc1 (racemic) [Example G3, 4-{trans-2-[6-(1H-Pyrazol-1-yl)pyridin-3-yl]cyclopropyl}benzenesulfonamide]
11 | 6.00 | 5.30 to 6.30 | CC(C)Oc1ccc(C2CC2c2ccc(S(N)(=O)=O)cc2)cn1 (racemic) [Example G4, 4-{trans-2-[6-(Propan-2-yloxy)pyridin-3-yl]cyclopropyl}benzenesulfonamide]

Second part, the molecule before the results:

Row | Molecule | pEC50 (read-out: α7 nAChR EC50) | pEC50 (read-out: α7 nAChR Potency)
12 | 4-(trans-2-{2-[(2,2-Dimethylpropyl)amino]pyrimidin-4-yl}cyclopropyl)benzenesulfonamide [Example D5] | 5.74 | 5.30 to 6.30
13 | 4-(trans-2-{2-[(4-Fluorophenyl)amino]pyrimidin-4-yl}cyclopropyl)benzenesulfonamide [Example D8] | 5.42 | 5.30 to 6.30
14 | 4-(trans-2-{2-[Methyl(phenyl)amino]pyrimidin-4-yl}cyclopropyl)benzenesulfonamide [Example D6] | – | 5.30 to 6.30
15 | 4-{trans-2-[2-(Benzylamino)pyrimidin-4-yl]cyclopropyl}benzenesulfonamide [Example D3] | – | 5.30 to 6.30
16 | 4-{trans-2-[2-(Cyclopentylamino)pyrimidin-4-yl]cyclopropyl}benzenesulfonamide [Example D2] | 5.66 | 5.30 to 6.30
17 | 4-{trans-2-[2-(Pyrrolidin-1-yl)pyrimidin-4-yl]cyclopropyl}benzenesulfonamide [Example D7] | 6.05 | 5.30 to 6.30
18 | CC(C)c1ccc(C2CC2c2ccc(S(N)(=O)=O)cc2)nc1 (racemic) [Example A6, 4-{trans-2-[5-(Propan-2-yl)pyridin-2-yl]cyclopropyl}benzenesulfonamide] | 6.15 | 5.30 to 6.30
19 | CC(C)c1cccnc1C1CC1c1ccc(S(N)(=O)=O)cc1 (racemic) [Example A7, 4-{trans-2-[3-(Propan-2-yl)pyridin-2-yl]cyclopropyl}benzenesulfonamide] | 5.62 | 5.30 to 6.30
20 | NS(=O)(=O)c1ccc([C@@H]2C[C@H]2c2cccc(-n3cccn3)n2)cc1 (racemic) [Example A8, 4-{trans-2-[6-(1H-Pyrazol-1-yl)pyridin-2-yl]cyclopropyl}benzenesulfonamide] | 5.48 | 5.30 to 6.30
21 | NS(=O)(=O)c1ccc([C@@H]2C[C@H]2c2cccc(C3CCOCC3)n2)cc1 (racemic) [Example A9, 4-{trans-2-[6-(Tetrahydro-2H-pyran-4-yl)pyridin-2-yl]cyclopropyl}benzenesulfonamide] | 5.25 | 4.30 to 5.30
22 | CC(C)c1cccc(C2CC2c2ccc(S(N)(=O)=O)cc2)n1 (racemic) [Example A10, 4-{trans-2-[6-(Propan-2-yl)pyridin-2-yl]cyclopropyl}benzenesulfonamide] | – | 5.30 to 6.30
23 | CC(C)c1ccnc(C2CC2c2ccc(S(N)(=O)=O)cc2)c1 (racemic) [Example A11, 4-{trans-2-[4-(Propan-2-yl)pyridin-2-yl]cyclopropyl}benzenesulfonamide] | 6.34 | 6.30 to 7.00
24 | NS(=O)(=O)c1ccc([C@@H]2C[C@H]2c2cccc(C3CCCC3)n2)cc1 (racemic) [Example A12, 4-[trans-2-(6-Cyclopentylpyridin-2-yl)cyclopropyl]benzenesulfonamide] | – | 6.30 to 7.00
25 | NS(=O)(=O)c1ccc([C@@H]2C[C@H]2c2ccc(C3CCCC3)cn2)cc1 (racemic) [Example A13, 4-[trans-2-(5-Cyclopentylpyridin-2-yl)cyclopropyl]benzenesulfonamide] | 5.82 | 5.30 to 6.30
26 | CC(C)c1ccc(C2CC2c2ccc(S(N)(=O)=O)cc2)nn1 (racemic) [Example B2, 4-{trans-2-[6-(Propan-2-yl)pyridazin-3-yl]cyclopropyl}benzenesulfonamide] | 5.06 | 4.30 to 5.30
27 | CC(C)c1cncc(C2CC2c2ccc(S(N)(=O)=O)cc2)n1 (racemic) [Example B3, 4-{trans-2-[6-(Propan-2-yl)pyrazin-2-yl]cyclopropyl}benzenesulfonamide] | – | 5.30 to 6.30
28 | CC(C)c1cnc(C2CC2c2ccc(S(N)(=O)=O)cc2)nc1 (racemic) [Example C2, 4-{trans-2-[5-(Propan-2-yl)pyrimidin-2-yl]cyclopropyl}benzenesulfonamide] | – | 5.30 to 6.30
29 | CC(C)c1ccnc(C2CC2c2ccc(S(N)(=O)=O)cc2)n1 (racemic) [Example C3, 4-{trans-2-[4-(Propan-2-yl)pyrimidin-2-yl]cyclopropyl}benzenesulfonamide] | 5.74 | 5.30 to 6.30
30 | NS(=O)(=O)c1ccc(C2CC2c2cncc(N3CCCC3)c2)cc1 (racemic) [Example G2, 4-{trans-2-[5-(Pyrrolidin-1-yl)pyridin-3-yl]cyclopropyl}benzenesulfonamide] | 5.49 | 5.30 to 6.30

From patent publication US11026958B2, “Substituted 6-membered aryl or heteroaryl allosteric modulators of nicotinic acetylcholine receptors” (Merck Sharp & Dohme Corp., priority 2016, dated 2021)
